Experimental findings from ChEMBL document CHEMBL1201862, “PubChem BioAssay data set” (2004) are described below.

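Where inhibition never reached the appropriate level, the endpoint shown equals the highest concentration tested. Otherwise, values were interpolated linearly from a five-concentration, 48-hour dose response in 96-well plates. At the GI50, growth is halved.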 Active and inactive are the calls of the source. No stated cut-off is given here; in the data, active = GI50 up to about 1.1 µM and inactive = higher. *1 amine or outer side, *2 acyl side, *3 side chain or, on linkers, in order; H or OH if unused. Where a SMILES comes first, the peptide text is derived from it. [ ]: non-standard residue; d: D form. The star is where a group is joined. ξ: configuration not given here. X43 = CCC(=O)CC(O)CC(C)CC(N[*:1])C(=O)[*:2]; ξLeu(3ξ-OH) = CC(C)C(O)C(N)C(=O)O; ξPro(4ξ-Me) = CC1CNC(C(=O)O)C1; X42 = CCC(C)/C=C/C(=O)*; Aib = CC(C)(N)C(=O)O; X44 = CC(CN(C)C)N*; βAla = NCCC(=O)O

Test systems include MCF7; MDA-N; T47D; SNB-78; DMS-273; KM-20L2; DMS-114.
Holding throughout (assay): DTP human tumour cell line panel, 48 h

What is called GI50 is the concentration at which growth is held to half of that of the control.

Regarding `CCn1c(=O)c2c3cc(OC(C)=O)ccc3oc2c2ccc(OC(C)=O)cc21`, the GI50 is 35 µM (inactive) in the assay with MCF7, 33.3 µM (inactive) with MDA-N and 20.2 µM (inactive) with T47D.

On to `C[C@]12CC[C@H]3[C@@H](CCC4=C(Br)C(=O)C=C[C@@]43O)[C@@H]1CCC2=O`, for which the GI50 is 38.9 µM (inactive) in the assay on MCF7 and 30.6 µM (inactive) in the assay with MDA-N.

As to `c1ccc(/N=C2\c3ccccc3CN2c2ccccc2)cc1`, the GI50 with MCF7 is > 100 µM (inactive); in the assay with MDA-N it was > 100 µM (inactive); with T47D, 80.2 µM (inactive).

With `CC(C)Cc1c(C#N)c(C#N)c(N)n1Cc1ccccc1`, the GI50 in the assay on MCF7, with MDA-N and in the assay on T47D was > 100 µM (inactive) each time.

Take `CC1=CC(=O)c2cccc(NC3=NCCO3)c21`: the GI50 in the assay on MDA-N was 27.7 µM (inactive); with T47D, 68.7 µM (inactive).

Regarding `O/N=C1\Nc2ccccc2OCc2cc(Br)c(Br)cc2COc2ccccc2N\C1=N/O`, the GI50 is 6.81 µM (inactive) in the assay with MCF7, 14.3 µM (inactive) in the assay with MDA-N and 10.9 µM (inactive) with T47D.

With `CCC[C@H](O)[C@@H](CNc1cc(NC(C)=O)nc(NC(C)=O)n1)N(Cc1ccccc1)Cc1ccccc1`, the GI50 with MCF7 is 8.79 µM (inactive); in the assay on MDA-N it was 47 µM (inactive).

`C[C@]12CC/C(=N\O)C=C1CC[C@@H]1C2CC[C@@]2(C)C1CC[C@@H]2OC1CCCCO1` (some centres undefined): the GI50 was 19.1 µM (inactive) in the assay with SNB-78, 17.7 µM (inactive) in the assay with DMS-273, 14.4 µM (inactive) with KM-20L2 and 22 µM (inactive) with DMS-114.

On to `C[C@H](NC(=O)C(Cc1ccccc1)(Cc1ccc(O)cn1)NC(=O)c1ccccc1)c1ccccc1` (some centres undefined), for which the results for the GI50 in the assay with MCF7, in the assay on MDA-N and in the assay on T47D were 24.2 µM (inactive), 15.5 µM (inactive) and 18.5 µM (inactive), respectively.

Regarding `COC1=C(OC)C(=O)C(Cc2c(-c3ccccc3)nc3sc(Cl)cn23)=C(C)C1=O`, the GI50 with MCF7 was 20.3 µM (inactive); with MDA-N it was 16.3 µM (inactive); in the assay with T47D, 23.4 µM (inactive).

`COC(=O)c1c2c(cc3c1CC1(Cc4cc5c(c(C=O)c4C1)CCC5)C3)CCC2` (centres undefined): the GI50 in the assay on MCF7 was 42 µM (inactive); in the assay on MDA-N, 34 µM (inactive); with T47D, 30.7 µM (inactive).

Take `CC(C)(CO[C@H]1C[C@H]2CC[C@@]1(C)C2(C)C)[N+](=O)[O-]`: the GI50 with MCF7 is 22.9 µM (inactive); with MDA-N it was 15.6 µM (inactive); in the assay on T47D, 19.6 µM (inactive).

As to `Cc1cc2c(cc1C)C(=O)C1(C2)Cc2c(C)ccc(C)c2C1=O` (centres undefined), the GI50 with MCF7 was > 100 µM (inactive); with MDA-N, > 100 µM (inactive); in the assay with T47D, 25.2 µM (inactive).

For `C[C@]12CCC3c4ccc(O)cc4CC[C@H]3C1CC(=O)N(CCN1CCCC1)C2=O` (some centres undefined), the GI50 in the assay on MCF7, with MDA-N and with T47D was > 10 µM (inactive) in each case.

For `CC(C)CC(=O)NC(Nc1ccc(S(=O)(=O)Nc2ncccn2)cc1)(C(F)(F)F)C(F)(F)F`, the GI50 with MDA-N and in the assay with T47D was > 100 µM (inactive) in each case.

Take `O=C(O)CCN1C(=S)CSC1=S`: the figures for the GI50 in the assay with MCF7, with MDA-N and with T47D were 67.5 µM (inactive), > 100 µM (inactive) and > 100 µM (inactive), respectively.

Regarding `O=S1(=O)N=C(SCc2c[nH]c3ccccc23)N(c2ccccc2)c2ccncc21`, the results for the GI50 in the assay on MCF7, in the assay with MDA-N and with T47D were 42.5 µM (inactive), > 100 µM (inactive) and 21.3 µM (inactive), respectively.

For `CCC(=O)CC(O)CC(C)CC(NC(=O)C1CC(C)CN1C(=O)/C=C/C(C)CC)C(=O)NC(C(=O)NC(C)(C)C(=O)NC(CC(C)C)C(=O)NC(CC(C)C)C(=O)NC(C)(C)C(=O)NC(C)(C)C(=O)NCCC(=O)NC(C)CN(C)C)C(O)C(C)C` (centres undefined) (X42-[ξPro(4ξ-Me)][X43][ξLeu(3ξ-OH)][Aib]LL[Aib][Aib][βAla]-X44; configuration not given here), the GI50 in the assay on MCF7 is < 0.005 µM (active); with MDA-N it was 0.0818 µM (active); in the assay with T47D, < 0.005 µM (active).

Consider `CCOC(=O)C1(C#N)C(C#N)(C#N)C1(C#N)C#N`, for which the GI50 in the assay with MCF7, in the assay on MDA-N and in the assay on T47D was > 100 µM (inactive) in each case.

With `C[N+]12C=CC=C1C(N1CCCC1)c1sc(-c3ccc(Cl)cc3)cc12` (centres undefined), the GI50 in the assay on MCF7 is 14.7 µM (inactive); in the assay on MDA-N, 15.8 µM (inactive); with T47D, 10.6 µM (inactive).

In the case of `O=C1c2ccccc2C(=O)c2c1c1cc(O)ccc1n2Cc1ccc(Cl)cc1Cl`, the GI50 is 4.11 µM (inactive) in the assay on MCF7 and 12.1 µM (inactive) with MDA-N.

For `O=C(N/N=C(COc1cccc(Cl)c1)\N=C\c1ccncc1)c1ccncc1`, the GI50 in the assay with MCF7, in the assay on MDA-N and in the assay with T47D was > 100 µM (inactive) throughout.

`CC1=NNC(=O)C1C1CC(c2c[nH]c3ccccc23)=NNC1=S` (centres undefined): the GI50 in the assay on MDA-N was > 100 µM (inactive); in the assay with T47D it was 82.2 µM (inactive).

Take `CSc1c([S+](C)[O-])[nH]c2cc(Br)cc(Br)c12` (centres undefined): the GI50 was 19.3 µM (inactive) in the assay on SNB-78 and 16.4 µM (inactive) in the assay with DMS-273.

Turning to `CCOC(=O)NNC(=O)NCCNC(=O)NNC(=O)OCC`, the GI50 in the assay on MCF7, in the assay on MDA-N and in the assay with T47D was > 100 µM (inactive) each time.

With `Cc1nc(Nc2ccc(Cl)cc2Cl)sc1C(=O)Nc1ccccc1`, the GI50 with MCF7 is 36 µM (inactive); in the assay with MDA-N, 81.3 µM (inactive); in the assay on T47D, 22.4 µM (inactive).

Take `Cc1cc(C)c(C(=O)c2nnc3ccccc3c2N)c(C)c1`: the GI50 was 16.7 µM (inactive) in the assay on MDA-N and 16.6 µM (inactive) in the assay on T47D.

`O=c1cnn(C2OC(CO)C(O)C(F)C2O)c(=O)[nH]1` (centres undefined): the GI50 in the assay with MCF7, in the assay on MDA-N and in the assay on T47D was > 100 µM (inactive) each time.

`CCC1(CC)C(=O)OC(=O)C1(CC)CC`: the GI50 with MDA-N and with T47D was > 100 µM (inactive) each time.

In the case of `S=C1NCCN1C(=S)Nc1ccccc1`, the results for the GI50 with MCF7, with MDA-N and with T47D were > 100 µM (inactive), > 100 µM (inactive) and 40.1 µM (inactive), respectively.

For `CCOP(=O)(OCC)C(Cc1cn(S(=O)(=O)c2ccc(C)cc2)cn1)C(=O)O` (centres undefined), the GI50 in the assay with MCF7, in the assay with MDA-N and with T47D was > 100 µM (inactive) each time.

For the compound `Cc1ccc(/C(=C\C(=O)C(=O)NC23CC4CC(CC(C4)C2)C3)Sc2ccccc2)cc1`, the GI50 with MCF7, in the assay with MDA-N and in the assay on T47D was > 10 µM (inactive) in each case.

Take `CC(=O)OCC12C(=O)C[C@@H](C)C3(CC(c4ccoc4)OC3=O)C1CCC(OC(C)=O)C21CO1` (some centres undefined): the GI50 with MCF7, in the assay on MDA-N and in the assay on T47D was > 100 µM (inactive) each time.

Take `COC(=O)C1=C(OC(=O)/C=C/c2ccc(Cl)cc2)C(C(=O)OC)[C@]2(O)[C@@H](C(=O)OC)[C@H]1C[C@@H](c1ccccc1)[C@@H]2C(=O)OC` (some centres undefined): the results for the GI50 with MDA-N and in the assay with T47D were 3.58 µM (inactive) and 5.87 µM (inactive), respectively.

`CNC(=O)CCC(NC(=O)OC(C)(C)C)C(=O)NC(Cc1ccc(NC(=O)CCCCC(C)=O)cc1)C(=O)NCC(=O)NC` (centres undefined): the GI50 with MCF7, in the assay on MDA-N and in the assay on T47D was > 100 µM (inactive) each time.

Consider `CN(C)CCCNC(=O)c1cc(NC(=O)c2cc(NS(=O)(=O)c3ccc4c(c3)C(=O)c3ccccc3C4=O)cn2C)cn1C`, for which the figures for the GI50 with MCF7, in the assay with MDA-N and with T47D were 31.8 µM (inactive), 88.5 µM (inactive) and > 100 µM (inactive), respectively.

As to `NC1=NS(=O)(=O)Nc2nc(-c3ccc([N+](=O)[O-])cc3)[nH]c21`, the GI50 with DMS-273 and in the assay on DMS-114 was > 100 µM (inactive) each time.

For the compound `CC(=O)O[C@H]1C(=O)[C@]2(C)[C@@H](OC(=O)OCCC(O)CO)C[C@H]3OC[C@@]3(OC(C)=O)[C@H]2[C@H](OC(=O)c2ccccc2)[C@]2(O)C[C@H](OC(=O)[C@H](O)[C@@H](NC(=O)c3ccccc3)c3ccccc3)C(C)=C1C2(C)C` (some centres undefined), the GI50 with MCF7 and in the assay on MDA-N was < 0.01 µM (active) in each case.

On to `COc1cc2cc(C(=O)N3CC(CCl)c4c3cc(NCCN)c3ccccc43)[nH]c2c(OC)c1OC` (centres undefined), for which the results for the GI50 in the assay on MCF7, in the assay on MDA-N and in the assay with T47D were < 0.01 µM (active), < 0.0105 µM (active) and < 0.01 µM (active), respectively.

Turning to `CC(C)(C)C(=O)c1c(O)c2ccccc2c2ccccc2c1=O`, the figures for the GI50 with MCF7, in the assay on MDA-N and with T47D were > 100 µM (inactive), > 100 µM (inactive) and 52.1 µM (inactive), respectively.

In the case of `COc1ccc(CSC2=C(C#N)C(=O)NC3(CCCCC3)S2)cc1`, the GI50 in the assay with MCF7 was 34.2 µM (inactive); with MDA-N, 22.4 µM (inactive); with T47D, 27.5 µM (inactive).

For the compound `COC(=O)c1c2c(cc3c1CC1(Cc4cc5c(c(C(C)=O)c4C1)CCCC5)C3)CCCC2` (centres undefined), the GI50 was 85.1 µM (inactive) with MCF7, 66.4 µM (inactive) with MDA-N and > 100 µM (inactive) in the assay on T47D.

Consider `C[C@H]1CC(=O)C[C@@H]2CC[C@@H]3[C@H](CC[C@]4(C)C(OC(=O)c5cccc6c(=O)c7ccccc7[nH]c56)CC[C@@H]34)[C@]21C` (some centres undefined), for which the results for the GI50 in the assay with MCF7 and in the assay on T47D were 62.5 µM (inactive) and 32.7 µM (inactive), respectively.

For the compound `O=C1/C(=C/c2ccccc2)CCc2ccc([N+](=O)[O-])cc21`, the GI50 in the assay on MCF7 is 4.17 µM (inactive); in the assay on MDA-N, 35 µM (inactive); in the assay on T47D it was > 51.6 µM (inactive).

As for `Clc1ccccc1C(Nc1ncccn1)Nc1ncccn1`, the GI50 with MCF7, in the assay with MDA-N and in the assay on T47D was > 100 µM (inactive) each time.

Take `Clc1ccc(/C=C/c2nc(-c3ccc(Cl)cc3)cn3c2nc2ccccc23)cc1`: the results for the GI50 in the assay on MCF7, in the assay with MDA-N and in the assay on T47D were 50.5 µM (inactive), > 100 µM (inactive) and 88.7 µM (inactive), respectively.

On to `CC(=O)C(C(C)=O)=C1CCCC(O)O1` (centres undefined), for which the GI50 in the assay with MCF7 and in the assay with T47D was > 100 µM (inactive) in each case.

Regarding `O=S(=O)(O)C(CO)c1ccccc1.O=S(=O)(O)Cc1ccccc1` (centres undefined), the GI50 in the assay on MCF7, with MDA-N and in the assay on T47D was > 100 µM (inactive) in each case.

In the case of `COC1(OC)C[C@H](C)[C@@]23O[C@]24C2=CC(=O)C=CC2=N[C@H]3C#C/C=C\C#C[C@]14O`, the GI50 is 0.276 µM (active) in the assay with MCF7, 1.08 µM (active) with MDA-N and 0.427 µM (active) in the assay with T47D.
